Positions of bridges follow the written chain, without caps; N, C: chain ends. Non-standard residues stand in square brackets, D forms with d. Primed or numbered codes have the meaning given here. Chains are numbered I, II in the order given. No end group written: not given here. PEG12′ = not defined here; Nle = CCCC[C@H](N)C(=O)O
What was measured:
[1] = tested on: SH-SY5Y Neuroblastoma Cells Exposed to Staurosporine; assay: ATP levels in cells exposed to staurosporine; type: cell-based, human; conditions: peptide 10 μM with staurosporine, 18-20 hours; <100% cytoprotective, >100% synergistic
Protocol: Peptides were initially prepared as 10 mM stock in DMSO and tested at a final concentration of 10 μM (0.1% DMSO). […] […] CellTiter-Glo® Assay kit was purchased from Promega. SH-SY5Y human neuroblastoma cell line was purchased from American Type Culture Collection (Manassas, Va.) and licensed from Memorial Sloan-Kettering Cancer Center (New York, N.Y.). SH-SY5Y cells were grown in DMEM/F12 medium supplemented with 10% FBS with 100 IU/ml penicillin and 100 μg/ml streptomycin. Cultures were maintained at 37° C. in a humidified atmosphere of 5% CO2/95% air. SH-SY5Y cells were seeded at 30,000 cells per well on 96-well plates. […] ATP levels were determined using a CellTiter-Glo Assay kit (Promega) according to the manufacturer's instructions. Luminescence for each sample well on the plate was measured using a Cytation 3 plate reader (BioTek, Winooski, Vt.). […] A value less than 100% is indicative of a cytoprotective effect, while a value greater than 100% is indicative of a synergistic effect on viability.

[2] = tested on: A172 Cells; assay: Cell viability, PrestoBlue Assay; type: cell-based, human; conditions: peptide 10 μM, 18-20 hours, relative to 0.1% DMSO control
Protocol: The effect of the peptides on cell viability can be assessed in cultured cells using suitable assay of viability such as the PrestoBlue® assay (Thermo Fisher Scientific, Waltham, Mass.). Peptides were initially prepared as 10 mM stock in DMSO and tested at a final concentration of 10 μM (0.1% DMSO). […] PrestoBlue Assay Reagent was purchased from Thermo Fisher Scientific. A172 human brain glioblastoma cell line was purchased from American Type Culture Collection (Manassas, Va.). A172 cells were grown in DMEM supplemented with 10% FBS with 100 IU/ml penicillin and 100 μg/ml streptomycin. Cultures were maintained at 37° C. in a humidified atmosphere of 5% CO2/95% air. A172 cells were seeded at 8,000 cells per well on 96-well plates. […] Cell viability was determined using a PrestoBlue Assay reagent […] according to the manufacturer's instructions. Absorption for each sample well on the plate was measured using a Cytation 3 plate reader at 560 nm and 590 nm (BioTek, Winooski, Vt.). Activity was calculated relative to 0.1% DMSO untreated control. Treatment with 0.1% DMSO alone was used as the cell viability activity control. The relative standard deviation of the DMSO control was <5%.

[3] = tested on: H4IIE Rat Hepatoma Cells; assay: Insulin-dependent effect on glucose production by cultured rat liver cells; type: cell-based; conditions: 24 hour; for Glucose Levels, MEAN % Control, +Insulin: peptide 10 μM + insulin 800 pM, percent of insulin (800 pM); for Glucose Levels, MEAN % Control, −Insulin: peptide 10 μM alone, percent of untreated control cells
Protocol: The effect of the peptides on glucose production was assessed in the absence and presence of insulin using an assay of glucose levels in cultured cells such as rat hepatocytes. Peptides were initially prepared as 10 mM stock in DMSO and used at a final concentration of 10 μM (0.1% DMSO). Insulin (800 pM) was used as a partial inhibitor of glucose production. H4-IIE cells purchased from ATCC (Manassas, Va.) were seeded at 100,000 cells/well in standard medium (DMEM/high glucose+10% FBS+1× Glutamax+antibiotics) on 96-well plates and allowed to adhere overnight at 37° C. in a humidified atmosphere of 5% CO2/95% air. Approximately 24 h after seeding, the medium was removed, cells rinsed with glucose free DMEM, and Glucose Production Medium (glucose free DMEM+2 mM sodium pyruvate+10 mM sodium lactate) was added. The cultures were placed at 37° C. in a humidified atmosphere of 5% CO2/95% air overnight. The next morning, the medium was removed and fresh Glucose Production Medium containing compounds was added. Insulin at 800 pM was added to control wells. Peptides (10 μM) in the absence or presence of insulin (800 pM) were added to test wells. Cells in the presence of compounds were placed at 37° C. in a humidified atmosphere of 5% CO2/95% air overnight. After 24 hour incubation, conditioned medium from each well was transferred to a fresh 96-well plate for quantitation of glucose content. Quantitation of glucose levels was determined using an Amplex Red Glucose Assay kit (Abacm; Cambridge, Mass.) according to the manufacturer's instructions using a Cytation 3 plate reader at 570 nm (BioTek, Winooski, Vt.). Absorbance values were expressed as a percent of untreated control cells (maximum glucose production) for peptide alone samples or insulin (800 pM) for peptides in the presence of insulin (800 pM. Glucose levels for insulin (800 pM) treatment were ˜80-90% of the untreated control values. The results are reported in Table 15.

[4] = tested on: WI-38 cells (human fetal lung fibroblast cells); assay: Fibroblast-to-myofibroblast transition assay, pro-collagen I alpha 1 expression; type: cell-based; conditions: 10 μM peptide and 5 ng/ml TGF-β, 48 h, cell lysates
Protocol: The effect of the peptides on fibrosis can be assessed in vitro using a fibroblast-to-myofibroblast transition (FMT) assay and monitoring pro-collagen I alpha 1 expression produced by cultured cells such as human fetal lung fibroblast cells. Peptides were initially prepared as 10 mM stock solutions in DMSO or 1 mM stock in H2O and were used at a final concentration of 10 μM (0-0.1% DMSO). Transforming Growth Factor beta (TGF-β) was used as a potent inducer of FMT as measured by increased pro-collagen I alpha 1 expression. Human WI-38 cell line was purchased from American Type Culture Collection (Manassas, Va.). WI-38 cells were seeded in complete medium (DMEM/high glucose (4 g/L)+10% Fetal Bovine Serum+1% penicillin/streptomycin) at 40,000 cells/well on 48-well plates and placed at 37° C. in a humidified atmosphere of 5% CO2/95% air. The next day, the medium was removed, cells were rinsed twice with HBSS, and the medium replaced with Serum Restricted Medium (DMEM/high glucose (4 g/L)+0.2% Fetal Bovine Serum+1% penicillin/streptomycin). The cultures were placed at 37° C. in a humidified atmosphere of 5% CO2/95% air overnight. Following 24 h in Serum Restricted Medium, the medium was removed, and the following was added: fresh Serum Restricted Medium alone (no TGF-β control); fresh Serum Restricted Medium containing 5 ng/ml TGF-β (TGF-β control); or fresh Serum Restricted Medium containing 10 μM peptide and 5 ng/ml TGF-β. Cells were incubated for 48 h at 37° C. in a humidified atmosphere of 5% CO2/95% air, washed twice with cold HBSS and immediately lysed. Lysis and determination of pro-collagen I alpha 1 concentrations in the cell lysates were performed using a Pro-Collagen I Alpha 1 ELISA kit (Abcam; Cambridge, Mass.) according to the manufacturer's instructions; absorbance was measured using a Cytation 3 plate reader at 450 nm (BioTek, Winooski, Vt.).

Row | Substance | Percent of ATP Reduction Induced by Control [1] [%] | PrestoBlue Assay, Percent of Control Activity [2] [%] | Glucose Levels, MEAN % Control, +Insulin [3] [%] | Glucose Levels, MEAN % Control, −Insulin [3] [%] | Procollagen I Alpha 1 Mean (SEM) [4] | Glucose Levels, MEAN % Control, +Insulin ([3]; listed as 5) [%] | Glucose Levels, MEAN % Control, −Insulin ([3]; listed as 5) [%]
1 | MRVIRMCLGVGLLGDLAG [SEQ ID NO: 2] | 104.8 | 100.0 | 79.7 | 121 | – | – | –
2 | R(dA)IR(Nle)SLNVGLLGEL(dA) (R[dA]IR[Nle]SLNVGLLGEL[dA]) [SEQ ID NO: 15] | – | – | 95.2 | 94.3 | – | – | –
3 | RVIR(Nle)CLNVGLLGEL(dA)G (RVIR[Nle]CLNVGLLGEL[dA]G) [SEQ ID NO: 6] | – | – | 82.5 | 109 | – | – | –
4 | RVIR(Nle)SLNVGLEGEL(dA) (RVIR[Nle]SLNVGLEGEL[dA]) [SEQ ID NO: 14] | – | – | 97.8 | 104 | – | – | –
5 | RVIR(Nle)SLNVGLLGEL(dA)G (RVIR[Nle]SLNVGLLGEL[dA]G) [SEQ ID NO: 8] | – | – | 63.5 | 105 | – | – | –
6 | RVIRMCLGVGLLGDL(dA)G (RVIRMCLGVGLLGDL[dA]G) [SEQ ID NO: 4] | 104.1 | 97.7 | 54.3 | 119 | – | – | –
7 | RVIRMCLGVGLLGDLAG (disulfide I:6-II:6) [SEQ ID NO: 26] | – | – | 21 | 114 | – | – | –
8 | RVIRMCLGVGLLGDLAG [SEQ ID NO: 3] | 108.4 | 98.9 | 39.9 | 121 | – | – | –
9 | RVIRMCLGVGLLGDLAGK{PEG12} (RVIRMCLGVGLLGDLAGK(PEG12′)) [SEQ ID NO: 17] | – | – | 18.8 | 105 | – | – | –
10 | RVIRMCLGVGLLGDLAGK{PEG12} (chain 1 RVIRMCLGVGLLGDLAGK(PEG12′); chain 2 RVIRMCLGVGLLGDLAGK(PEG12′); disulfide I:6-II:6) [SEQ ID NO: 28] | – | – | 23.9 | 92.0 | 1830 (507) pg/mL | – | –
11 | RVIRMCLNNGLLGEL(dA)G (RVIRMCLNNGLLGEL[dA]G) [SEQ ID NO: 9] | – | – | 19.1 | 103 | – | – | –
12 | RVIRMCLNNGLNGEL(dA)E (RVIRMCLNNGLNGEL[dA]E) [SEQ ID NO: 23] | – | – | 3.1 | 36 | – | – | –
13 | RVIRMCLNVGLLGEL(dA)E (RVIRMCLNVGLLGEL[dA]E) [SEQ ID NO: 12] | – | – | 57.8 | 107 | – | – | –
14 | RVIRMCLNVGLLGEL(dA)G [SEQ ID NO: 5] (RVIRMCLNVGLLGEL[dA]G) | 108.0 | 96.9 | – | – | 4200 (597) pg/mL | 54.5 | 117
15 | RVIRMCLNVGLNGEL(dA)G (RVIRMCLNVGLNGEL[dA]G) [SEQ ID NO: 11] | – | – | 32.7 | 105 | – | – | –
16 | RVIRMCLNVGNLGEL(dA)G (RVIRMCLNVGNLGEL[dA]G) [SEQ ID NO: 10] | – | – | 38 | 101 | 4460 (235) pg/mL | – | –
17 | RVIRMSLNVGLEGEL(dA) (RVIRMSLNVGLEGEL[dA]) [SEQ ID NO: 13] | – | – | 46.8 | 71.4 | – | – | –
18 | RVIRMSLNVGLLGEL(dA)G (RVIRMSLNVGLLGEL[dA]G) [SEQ ID NO: 7] | – | – | 74.4 | 89.2 | – | – | –
